According to patent publication US20090124633A1, “N-OXIDES OF HETEROCYCLIC SUBSTITUTED BISARYLUREAS FOR TREATING KINASE-MEDIATED DISEASES” (priority 2006, published 2009):

Columns and labels:
[1] = Stability against oxygen in air; type: physicochemical; details: dissolved either in DMSO/water or in acetic acid/water, stirred on air for more than a week
Description: Stability Against Oxygen in Air
The compounds • 4-{4-[3-(2-[1,2,4]Triazol-1-yl-5-trifluoromethyl-phenyl)-ureido]-phenoxy}-pyridine-2-carboxylic acid methylamide, • 4-{4-[3-(2-[1,2,3]Triazol-1-yl-5-trifluoromethyl-phenyl)-ureido]-phenoxy}-pyridine-2-carboxylic acid methylamide, 525946 • 4-{4-[3-(2-Imidazol-1-yl-5-trifluoromethyl-phenyl)-ureido]-phenoxy}-pyridine-2-carboxylic acid methylamide, and • 1-[4-(Pyridin-4-yloxy)-phenyl]-3-(2-[1,2,4]triazol-1-yl-5-trifluoromethyl-phenyl)-urea, respectively, were dissolved either in DMSO/water or in acetic acid/water and stirred on air for more than a week.

Tie-2 = biological target: T1, Tie-2 (Homo sapiens, UniProt Q02763); assay: flashplate kinase assay, phosphorylation of poly-Glu-Tyr (4:1) by Tie-2; type: biochemical; details: read-out: TIE2 [IC50]
T1 construct: The catalytic sections of the corresponding tyrosine kinases are preferably expressed as GST fusion proteins; GST
T1 sequence (Q02763 824-1096 limits assumed): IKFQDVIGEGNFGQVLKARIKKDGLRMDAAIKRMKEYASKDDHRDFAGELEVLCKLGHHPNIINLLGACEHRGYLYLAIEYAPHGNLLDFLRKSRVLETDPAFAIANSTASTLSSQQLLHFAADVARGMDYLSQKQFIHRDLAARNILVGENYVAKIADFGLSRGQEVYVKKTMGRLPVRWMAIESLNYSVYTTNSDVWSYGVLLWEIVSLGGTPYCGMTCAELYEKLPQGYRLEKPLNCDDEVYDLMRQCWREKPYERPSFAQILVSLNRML
Experimental: (§1) The biological activity of N-oxide compounds according the invention are tested in one or more standard kinase assay systems as described in the art. Preferably, the compounds according the invention are tested in a kinase assay as described below, or in analogous manner thereof:
(§2) In this assay the inhibitory action of the compounds according to the invention on the phosphorylation of the substrates Biotin-poly-Glu-Tyr (4:1) by VGFR2 (KDR) or poly-Glu-Tyr (4:1) by Tie-2, respectively, is tested. In the wells of a streptavidin-coated microtiter flashplate, VEGFR2, or a microtiter flashplate, Tie-2, respectively, phosphorylate the substrates in the presence of ATPyS and small amounts of radioactive ^33P-ATP. Phosphorylated substrates bind during enzymatic reaction to the walls of the wells. The phosphorylation reaction is stopped by addition of a stopping reagent, the liquid is removed from the wells and the wells are rinsed. The amount of radioactivity incorporated into the substrate bound to the well is then measured. The reaction is done in presence of different concentrations of the compound and in absence of the compound. The inhibitory action of the compounds according to the invention is determined on the basis of the ratio of radioactivity found in the presence of a compound according to the invention in comparison to the radioactivity found in the enzymatic reaction in the absence of a compound according to the invention. The catalytic sections of the corresponding tyrosine kinases are preferably expressed as GST fusion proteins.
(§3) 100 μL of the compound to be tested are applied to a well (starting concentration: 1E-3 mol/L in 100% DMSO); the dilution for the determination of the IC 50 values is performed on a BiomekFX robot in 10 steps (range of concentration is 1E-5 to 1E-10 mol/L in the assay, i.e. 1E-5, 1E-6, 3E-7, 1E-7, 3E-8, 1E-8, 3E-9, 1E-9, 3E-10, 1E-10 mol/L).

VGFR2 (KDR) = biological target: T2, VGFR2 (KDR) (Homo sapiens, UniProt P35968); assay: flashplate kinase assay, phosphorylation of Biotin-poly-Glu-Tyr (4:1) by VGFR2 (KDR); type: biochemical
T2 construct: The catalytic sections of the corresponding tyrosine kinases are preferably expressed as GST fusion proteins; GST
T2 sequence (P35968 834-1162 limits assumed): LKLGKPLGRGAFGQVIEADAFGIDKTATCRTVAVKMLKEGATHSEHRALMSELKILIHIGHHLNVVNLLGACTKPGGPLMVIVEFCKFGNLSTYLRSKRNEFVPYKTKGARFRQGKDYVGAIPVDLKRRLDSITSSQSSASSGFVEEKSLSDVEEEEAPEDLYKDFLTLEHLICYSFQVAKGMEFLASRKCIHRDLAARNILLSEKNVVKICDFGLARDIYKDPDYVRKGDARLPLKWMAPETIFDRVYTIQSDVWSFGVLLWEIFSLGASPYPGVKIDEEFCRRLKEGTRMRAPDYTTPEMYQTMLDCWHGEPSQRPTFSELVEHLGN
Experimental: as §1, §2, §3

Row | IC50 (Tie-2) [µM] | IC50 (VGFR2 (KDR)) [µM] | Structure (SMILES) | N-oxide formation on air [1]
1 |  |  | O=C(Nc1ccc(Oc2ccncc2)cc1)Nc1cc(C(F)(F)F)ccc1-n1cncn1 [1-[4-(Pyridin-4-yloxy)-phenyl]-3-(2-[1,2,4]triazol-1-yl-5-trifluoromethyl-phenyl)-urea] | No N-oxide formation could be detected
2 |  |  | CNC(=O)c1cc(Oc2ccc(NC(=O)Nc3cc(C(F)(F)F)ccc3-n3ccnn3)cc2)ccn1 [4-{4-[3-(2-[1,2,3]Triazol-1-yl-5-trifluoromethyl-phenyl)-ureido]-phenoxy}-pyridine-2-carboxylic acid methylamide] | No N-oxide formation could be detected
3 | 0.052 | 0.014 | CNC(=O)c1cc(Oc2ccc(NC(=O)Nc3cc(C(F)(F)F)ccc3-n3cncn3)cc2)cc[n+]1[O-] [Compound 11, 1-Oxy-4-{4-[3-(2-[1,2,4]triazol-1-yl-5-trifluoromethyl-phenyl)-ureido]-phenoxy}-pyridine-2-carboxylic acid methylamide] | 
4 | 0.74 | 1.2 | O=C(Nc1ccc(Oc2cc[n+]([O-])cc2)cc1)Nc1cc(C(F)(F)F)ccc1-n1cncn1 [Compound 14, 1-[4-(1-Oxy-pyridin-4-yloxy)-phenyl]-3-(2-[1,2,4]triazol-1-yl-5-trifluoromethyl-phenyl)-urea] | 
5 | 0.03 | 0.049 | CNC(=O)c1cc(Oc2ccc(NC(=O)Nc3cc(C(F)(F)F)ccc3-n3ccnn3)cc2)cc[n+]1[O-] [Compound 12, 1-Oxy-4-{4-[3-(2-[1,2,3]triazol-1-yl-5-trifluoromethyl-phenyl)-ureido]-phenoxy}-pyridine-2-carboxylic acid methylamide] | 
6 | 0.049 | 0.056 | CNC(=O)c1cc(Oc2ccc(NC(=O)Nc3cc(C(F)(F)F)ccc3-n3ccnc3)cc2)cc[n+]1[O-] [Compound 13, 4-{4-[3-(2-Imidazol-1-yl-5-trifluoromethyl-phenyl)-ureido]-phenoxy}-1-oxy-pyridine-2-carboxylic acid methylamide] | 
7 |  |  | CNC(=O)c1cc(Oc2ccc(NC(=O)Nc3cc(C(F)(F)F)ccc3-n3ccnc3)cc2)ccn1 [4-{4-[3-(2-Imidazol-1-yl-5-trifluoromethyl-phenyl)-ureido]-phenoxy}-pyridine-2-carboxylic acid methylamide] | No N-oxide formation could be detected
8 |  |  | CNC(=O)c1cc(Oc2ccc(NC(=O)Nc3cc(C(F)(F)F)ccc3-n3cncn3)cc2)ccn1 [4-{4-[3-(2-[1,2,4]Triazol-1-yl-5-trifluoromethyl-phenyl)-ureido]-phenoxy}-pyridine-2-carboxylic acid methylamide] | No N-oxide formation could be detected
